Experimental data taken from ChEMBL document CHEMBL1145537, “Combination of tigecycline and N-acetylcysteine reduces biofilm-embedded bacteria on vascular catheters” (Antimicrob Agents Chemother, 2007).
Calls of active or inactive are those of the source.

Legend:
Format in all cases: functional, organism-based
Klebsiella pneumoniae [1] = assay: Antimicrobial activity against catheter-associated biofilm of Klebsiella pneumoniae
Staphylococcus aureus [2] = assay: Antimicrobial activity against catheter-associated biofilm of methicillin-resistant Staphylococcus aureus
[3] = tested on: Staphylococcus epidermidis; assay: Antimicrobial activity against catheter-associated biofilm of methicillin-resistant Staphylococcus epidermidis
Klebsiella pneumoniae [4] = assay: Antimicrobial activity against catheter-associated biofilm of Klebsiella pneumoniae assessed as reduction of CFU
Staphylococcus aureus [5] = assay: Antimicrobial activity against catheter-associated biofilm of methicillin-resistant Staphylococcus aureus assessed as reduction of CFU
Acinetobacter baumannii = assay: Antimicrobial activity against catheter-associated biofilm of Acinetobacter baumannii assessed as reduction of CFU
Staphylococcus aureus [6] = assay: Antimicrobial activity against catheter-associated biofilm of methicillin-sensitive Staphylococcus aureus assessed as reduction of CFU
[7] = tested on: Staphylococcus epidermidis; assay: Antimicrobial activity against catheter-associated biofilm of methicillin-resistant Staphylococcus epidermidis assessed as reduction of CFU

Measured: Activity

CC(=O)N[C@@H](CS)C(=O)O
active: Klebsiella pneumoniae [1] | Staphylococcus aureus [2] | [3]

CN(C)c1cc(NC(=O)CNC(C)(C)C)c(O)c2c1C[C@H]1C[C@H]3[C@H](N(C)C)C(O)=C(C(N)=O)C(=O)[C@@]3(O)C(O)=C1C2=O
active: Klebsiella pneumoniae [4] | Staphylococcus aureus [5] | Acinetobacter baumannii | Staphylococcus aureus [6] | [7]
